This is an account of results in article PMC10489817, “2-Alkyl-Substituted-4-Amino-Thieno[2,3-d]Pyrimidines: Anti-Proliferative Properties to In Vitro Breast Cancer Models” (Molecules, 2023).

Where two headings read alike, the source gives them in different places.

The subject of data set [1] is MCF-7. Nature of the data set: MTT anti-proliferative test, MCF-7. Type of data set: cell-based, human. The conditions noted are these: for IC50: Homo sapiens, MCF7, MTT. The source says:
(§1) The MCF-10A cell line (normal human mammary epithelial cells) served as a reference control.
(§2) All breast cell lines (MCF-10A, MCF-7, and MDA-MB-231) were purchased from the American Type Culture Collection—ATCC (Manassas, VA, USA). The MCF-7 and MDA-MB-231 were cultivated in Dulbecco’s modified Eagle’s medium (DMEM) and supplemented with 10% fetal bovine serum (FBS), 1% sodium pyruvate, and 1% MEM non-essential amino acids (NEAA) without antibiotics. The non-tumorigenic breast cell line (MCF-10A) was cultivated in DMEM medium (Sigma-Aldrich, St. Louis, MO, USA) and supplemented with 10% FBS, 1% sodium pyruvate, 1% non-essential amino acids (NEAA), 20 ng/mL human epithelia growth factor (hEGF), 10 μg/mL insulin, and 0.5 μg/mL hydrocortisone without antibiotics. All cell lines were maintained in a humidified atmosphere, with 5% CO2 at 37 °C.
(§3) Using the standard MTT-dye reduction assay described by Mosmann, the anti-proliferative activity was tested. The method is based on the metabolism of the tetrazolium salt MTT to insoluble formazan. The formazan absorption was registered using a microplate reader at λ = 540 nm. The measured absorption is an indicator of cell viability and metabolic activity. Anti-proliferative activities were expressed as IC50 values (concentrations required for 50% inhibition of cell growth), calculated using non-linear regression analysis (GraphPad Software, San Diego, CA, USA).

Data set [2] has as its system MDA-MB-231. Briefly: MTT anti-proliferative test, MDA-MB-231. In kind it is cell-based, human.
Description: as §1, §2, §3

Data set [3] can be described thus: in vitro 3T3 NRU test, cytotoxicity. In kind it is cell-based, mouse. The conditions noted are these: mouse, BALB/3T3 clone A31 cells (mouse embryo fibroblasts). The procedure:
(§4) Compounds 2–5 were studied for cytotoxicity/phototoxicity by an in vitro 3T3 NRU-test. The cell line BALB 3T3, clone A31 (mouse embryo fibroblasts), was incubated with the test compounds at a concentration from 15 to 4000 µg/mL for 24 h at 37 °C, 5% CO2, and 95% humidity. The cytotoxicity and phototoxicity were expressed in percentages relative to the negative control determined. […] Based on the dose–response curves, the CC50/PC50 values (50% cytotoxic/phototoxic concentration) were calculated by nonlinear regression analysis (Table 1). The CC50 values can be used to calculate the PIF (photo-irritancy factor) for each test compound according to the following formula: PIF = CC50/PC50.
(§5) BALB/3T3 cells were cultured in 75 cm^2 tissue culture flasks in DMEM, 10% FBS, 2 mM glutamine, and antibiotics (penicillin 100 U/mL and streptomycin-100 µg/mL) at 37 °C, 5% CO2, and 90% relative humidity. Cytotoxicity/phototoxicity was assessed by a validated BALB/3T3 clone A31 neutral red uptake assay (3T3 NRU test). Briefly, cells were plated in a 96-well microtiter plate at a density of 1 × 10^4 cells/100 µL/well and incubated for 24 h. A wide concentration range was applied for the test compounds. For the phototoxicity tests, 96-well plates were irradiated with a dose of 2.4 J/cm^2, and the cells were incubated for an additional 24 h. After treatment with neutral red medium, washing, and treatment with the ethanol/acetic acid solution, the absorption was measured on a TECAN microplate reader (TECAN, Grödig, Austria) at a wavelength of 540 nm. The light source which we used was a light-emitting diode (LED) matrix—an artificial solar light simulator Helios-iO, model LE-9ND55-H—5500K (SERIC Ltd., Tokyo, Japan).
Cytotoxicity/phototoxicity were expressed as CC50/PC50 values (concentrations required for 50% cytotoxicity/phototoxicity), calculated using non-linear regression analysis (GraphPad Software GraphPad Prism 9.5.1, San Diego, CA, USA). The CC50 values were used to calculate the PIF (photo-irritancy factor) for each test substance, according to the following formula: […]

Data set [4] deals with BALB 3T3 cells. Nature of the data set: in vitro 3T3 NRU test, phototoxicity. Conditions: for IC50: Mus musculus, light or radiation study. In kind it is cell-based, mouse. How it is done:
as §4, §5
Cytotoxicity/phototoxicity were expressed as CC50/PC50 values (concentrations required for 50% cytotoxicity/phototoxicity), calculated using non-linear regression analysis (GraphPad Software GraphPad Prism 9.5.1, San Diego, CA, USA). The CC50 values were used to calculate the PIF (photo-irritancy factor) for each test substance, according to the following formula:
PIF = Cytotoxicity (CC50)/Phototoxicity (PC50)

The subject of data set [5] is MCF-10A. Nature of the data set: MTT anti-proliferative test, MCF-10A. Type of data set: cell-based. Conditions: Homo sapiens.
Description: as §1, §2, §3

Data set [6] concerns A549, HCT116 and MCF-7 cell lines. Also noted: method as in doi:10.1016/j.cclet.2014.05.043. The conditions noted are these: cell line not stated; cited from earlier work.
In data set [7] the test system is MDA-MB-435. Also noted: method as in PMID 23538397. The conditions noted are these: cited from earlier work.

As to `N.N.[Cl][Pt][Cl]` [Cisplatin, reference compound], the “selective index in the positive control” value in data set [1] (tumor cell line not stated, paragraph on MCF-7) is given as 25.

Consider `CCOC(=O)c1sc2nc(CCCl)nc(N)c2c1C` [Compound 3, Ethyl 4-Amino-2-(2-Chloroethyl)-5-Methylthieno[2,3-d] Pyrimidine-6-Carboxylate], for which the melting point was 163 to 165 °C. Moreover, the IC50 in data set [2] (Homo sapiens, MDA-MB-231, MTT, read-out: IC50 MDA-MB-231 (converted)) was 400 µM. Moreover, the IC50 in data set [2] (Homo sapiens, MDA-MB-231, MTT, read-out: IC50 of Mean ± SD, Anti-Proliferative Activity MDA-MB-231) was determined as 131 ± 3 mg/L. Further, in data set [2] (IC50 MCF-10A/IC50 MDA-MB-231), the “SI (selective index) MDA-MB-231” value came to 0.3. For the same compound, the IC50 in data set [2] (MTT, read-out: IC50 MDA-MB-231 (converted)) is 440 µM. Moreover, the IC50 at 24 h in data set [3] (BALB 3T3, 24 h, NRU, no irradiation (CC50), read-out: IC50 of Mean ± SD, Cytotoxicity) stood at 674 ± 31.8 mg/L. Also, the IC50 at 24 h in data set [3] (BALB 3T3, value in brackets, read-out: IC50, Cytotoxicity (converted)) was 2200 µM. The IC50 in data set [4] (BALB 3T3, irradiated 2.4 J/cm^2 (PC50), read-out: IC50 of Mean ± SD, Phototoxicity) turned out to be 545 ± 40.1 mg/L. In data set [4] (BALB 3T3, irradiated, value in brackets, read-out: IC50, Phototoxicity (converted)), the IC50 was 1900 µM. Further, the “PIF (photo-irritancy factor)” value in data set [4] (PIF = CC50/PC50, <2 not phototoxic) turned out to be 1.2. In addition, the IC50 in data set [5] (read-out: IC50 MCF-10A (converted)) is 100 µM. For the same compound, the IC50 in data set [5] (read-out: IC50 of Mean ± SD, Anti-Proliferative Activity MCF-10A) came to 45.3 ± 3.5 mg/L. Moreover, the IC50 in data set [1] (read-out: IC50 MCF-7 (converted)) is 45 µM. For the same compound, the IC50 in data set [1] (read-out: IC50 MCF-7 (text)) came to 13.4 mg/L. In addition, the IC50 in data set [1] (read-out: IC50 of Mean ± SD, Anti-Proliferative Activity MCF-7) is 13.4 ± 0.8 mg/L. The “SI (selective index) MCF-7” value in data set [1] (IC50 MCF-10A/IC50 MCF-7) was 3.4.

`Cc1cc2c(OCc3cc(-c4ccc(Cl)cc4)no3)ncnc2s1` [6-methyl-4-{[3-(4-chlorophenyl)-isoxazol-5-yl-]-methoxy}-thieno[2,3-d]pyrimidine]: the IC50 in data set [6] is 0.00421 µM.

For `Cc1sc2nc(NCc3ccccc3)[nH]c(=O)c2c1C` [2-(benzylamino)-5,6-dimethylthieno[2,3-d]pyrimidin-4(3H)-one], the “growth percent (GP)” value in data set [7] was −31.02%.
